Consider three molecules from patent US4100274A, “Polypeptide” (Imperial Chemical Industries Limited, priority 1976, dated 1978).

Structures are written as SMILES.

This data set in a line: toxic effects at multiples of the minimum active dose. It counts as in vivo, rats. The settings on record: dosed at one hundred times their minimum effective dose.
In the case of `CC(C)C[C@H](NC(=O)[C@@H](Cc1ccccc1)NC(=O)[C@H](Cc1ccc(O)cc1)NC(=O)[C@H](CO)NC(=O)[C@H](Cc1c[nH]c2ccccc12)NC(=O)[C@H](Cc1c[nH]cn1)NC(=O)[C@@H]1CCC(=O)N1)C(=O)N[C@@H](CCCNC(=N)N)C(=O)N1CCC[C@H]1C(=O)NNC(N)=O` [Example 4], the toxic effects result is given as “no toxic effects”. As to `COc1ccc(C[C@@H](NC(=O)[C@H](Cc2ccc(O)cc2)NC(=O)[C@H](CO)NC(=O)[C@H](Cc2c[nH]c3ccccc23)NC(=O)[C@H](Cc2c[nH]cn2)NC(=O)[C@@H]2CCC(=O)N2)C(=O)N[C@@H](CC(C)C)C(=O)N[C@@H](CCCNC(=N)N)C(=O)N2CCC[C@H]2C(=O)NNC(N)=O)cc1` [Example 6], the toxic effects entry was “no toxic effects”.

In the case of `CC(C)C[C@H](NC(=O)[C@@H](COC(C)(C)C)NC(=O)[C@H](Cc1ccc(O)cc1)NC(=O)[C@H](CO)NC(=O)[C@H](Cc1c[nH]c2ccccc12)NC(=O)[C@H](Cc1cnc[nH]1)NC(=O)[C@@H]1CCC(=O)N1)C(=O)N[C@@H](CCCNC(=N)N)C(=O)N1CCC[C@H]1C(=O)NNC(N)=O` [Example 7], the toxic effects result is “no toxic effects”.
